One test has as its target T1, TLR7 (Homo sapiens, UniProt Q9NYK1).
T1 construct: host or cells: HEK-Blue hTLR7 (HEK293-derived SEAP reporter cells)
T1 sequence (Q9NYK1 27-1049): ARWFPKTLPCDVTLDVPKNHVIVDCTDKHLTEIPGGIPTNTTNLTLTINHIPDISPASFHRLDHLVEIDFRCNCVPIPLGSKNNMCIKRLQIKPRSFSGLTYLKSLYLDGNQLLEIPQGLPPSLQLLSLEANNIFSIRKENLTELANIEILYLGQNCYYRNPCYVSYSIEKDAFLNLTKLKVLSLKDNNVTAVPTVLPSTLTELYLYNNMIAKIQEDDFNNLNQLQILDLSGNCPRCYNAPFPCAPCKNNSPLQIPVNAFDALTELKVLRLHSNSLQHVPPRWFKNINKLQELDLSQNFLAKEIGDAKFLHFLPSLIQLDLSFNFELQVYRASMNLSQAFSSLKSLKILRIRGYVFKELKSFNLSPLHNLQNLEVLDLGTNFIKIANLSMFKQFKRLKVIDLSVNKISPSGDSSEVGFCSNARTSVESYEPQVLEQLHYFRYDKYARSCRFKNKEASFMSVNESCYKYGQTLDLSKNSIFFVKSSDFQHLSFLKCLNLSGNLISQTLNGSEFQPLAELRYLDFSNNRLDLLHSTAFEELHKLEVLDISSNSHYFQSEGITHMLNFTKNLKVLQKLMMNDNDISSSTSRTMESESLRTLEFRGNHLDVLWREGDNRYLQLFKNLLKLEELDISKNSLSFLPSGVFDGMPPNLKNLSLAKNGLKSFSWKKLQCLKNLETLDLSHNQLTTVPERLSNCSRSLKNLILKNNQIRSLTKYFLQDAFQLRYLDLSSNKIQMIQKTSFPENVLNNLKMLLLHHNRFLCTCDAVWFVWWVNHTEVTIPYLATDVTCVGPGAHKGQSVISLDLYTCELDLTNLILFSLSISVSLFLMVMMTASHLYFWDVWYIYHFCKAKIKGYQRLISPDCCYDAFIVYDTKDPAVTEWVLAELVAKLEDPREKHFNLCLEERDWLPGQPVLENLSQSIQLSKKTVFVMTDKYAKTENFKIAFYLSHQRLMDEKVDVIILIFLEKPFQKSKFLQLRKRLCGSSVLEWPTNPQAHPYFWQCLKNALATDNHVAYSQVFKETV
Put plainly: Inhibition of R848-induced signaling in HEK-Blue hTLR7 cell line (Quanti-Blue). Type of test: cell-based. The essentials: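 HEK-Blue hTLR8 or hTLR7 cells in serum-free DMEM were co-treated for 24 h at 37 °C with compound plus 1 μg/mL R848, or 5 μg/mL ssRNA40/LyoVec or ORN06/LyoVec. SEAP in the supernatant was read with Quanti-Blue at OD620. % inhibition was taken relative to ligand-only and untreated cells, and IC50 was fitted.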

Another test deals with T2, TLR8 (Homo sapiens, UniProt Q9NR97).
T2 construct: host or cells: HEK-Blue hTLR8 (HEK293-derived SEAP reporter cells)
T2 sequence (Q9NR97 27-1041): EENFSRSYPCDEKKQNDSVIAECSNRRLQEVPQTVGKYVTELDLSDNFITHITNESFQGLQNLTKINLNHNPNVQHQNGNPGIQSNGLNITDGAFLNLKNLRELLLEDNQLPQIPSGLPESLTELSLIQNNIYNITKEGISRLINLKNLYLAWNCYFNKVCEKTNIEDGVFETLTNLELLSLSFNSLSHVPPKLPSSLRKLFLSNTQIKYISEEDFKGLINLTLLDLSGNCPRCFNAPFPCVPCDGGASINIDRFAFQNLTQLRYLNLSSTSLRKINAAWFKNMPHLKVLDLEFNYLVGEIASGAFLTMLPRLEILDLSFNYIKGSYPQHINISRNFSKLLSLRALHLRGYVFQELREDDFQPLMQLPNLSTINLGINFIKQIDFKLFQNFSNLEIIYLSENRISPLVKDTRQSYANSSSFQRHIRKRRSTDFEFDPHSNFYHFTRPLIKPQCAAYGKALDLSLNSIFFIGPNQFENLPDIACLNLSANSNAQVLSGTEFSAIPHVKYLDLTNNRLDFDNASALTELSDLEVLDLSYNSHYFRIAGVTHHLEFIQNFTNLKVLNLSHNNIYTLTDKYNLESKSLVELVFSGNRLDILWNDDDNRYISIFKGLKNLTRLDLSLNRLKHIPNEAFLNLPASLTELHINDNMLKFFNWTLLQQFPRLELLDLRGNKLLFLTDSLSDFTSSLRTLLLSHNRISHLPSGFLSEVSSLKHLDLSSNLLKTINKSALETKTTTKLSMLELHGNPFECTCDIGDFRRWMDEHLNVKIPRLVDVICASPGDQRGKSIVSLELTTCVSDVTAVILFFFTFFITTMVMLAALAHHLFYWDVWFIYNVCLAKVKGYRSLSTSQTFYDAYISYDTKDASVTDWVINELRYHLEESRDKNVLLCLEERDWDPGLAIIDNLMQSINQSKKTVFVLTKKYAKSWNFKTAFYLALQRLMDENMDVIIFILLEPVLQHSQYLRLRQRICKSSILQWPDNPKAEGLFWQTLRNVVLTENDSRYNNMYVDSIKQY
The test can be described thus: ssRNA40-induced signaling in HEK-Blue hTLR8 cell line. It counts as cell-based. The note with it: at a concentration of 100 μM (FIG. 12). On the procedure: HEK Blue hTLR8 cells or HEK Blue hTLR7 cells were cultured in DMEM medium supplemented with 10% fetal bovine serum, penicillin (100 U/mL) and streptomycin ([…]). Thereafter, cells were seeded in 96-well plate (45,000 cells per well), and were cultured for 24 hours in a humidified incubator (37° C., 5% CO2).
After 24 hours, the supernatant and suspending cells were aspirated and replaced with fresh serum-free DMEM. Cells were treated with 1 μg/mL of R848 (agonist of TLR7/8) or 5 μg/mL of ssRNA40/LyoVec or 5 μg/mL of ORN06/LyoVec (InvivoGen) and compounds with specified concentrations, and were placed in a humidified incubator (37° C., 5% CO2) for co-culture.
After 24 hours, 50 μL of the medium was aspirated from each well and then added to a new 96-well plate, followed by the addition of 50 μL of Quanti-Blue in each well and the incubation at 37° C. in darkness. Changes in color would occur in the […] within 60 minutes, and the absorbance was measured at 620 nm by using the multi-mode plate reader Vrioskan Flash. Inhibition rate (%)=[R848 (OD620)−Compound (OD620)]/[R848 (OD620)−Control (OD620)]×100%. Among these, the control group was only added with the same amount of cells. Finally, the software Prism 6.0 was utilized to plot a graph and calculate IC50 values. […]

This is an account of results in patent publication US20230002327A1, “SMALL-MOLECULE REGULATOR OF TLR8” (TSINGHUA UNIVERSITY, priority 2019, published 2023).

For the compound `CCOCc1nc(I)c(-c2ccccc2)n1CC(C)(C)O` [Compound 53, 1-[2-(ethoxymethyl)-4-iodo-5-phenyl-1H-imidazole-1-yl]-2-methylpropan-2-ol], the “TLR7 (normalized inhibitory effect on R848-induced signaling)” value at TLR7 was found to be 1.0 ± 0.2. Also, at TLR8, the “synergistic activating effect on ssRNA40-induced signaling” value is “synergistic activating effect”.
